Biological target: purified PDE1A enzyme (Homo sapiens, UniProt P54750)
Experiment: In vitro PDE1A assay, dose response (Biomol Cyclic Nucleotide Phosphodiesterase Assay Kit, colorimetric)
Format: biochemical
Conditions: 100 μM cAMP, 45 min at 37° C., 8 points from 20 μM, duplicate
Source text: For the dose response and further screening, we used the Cyclic Nucleotide Phosphodiesterase Assay Kit from Biomol, a colorimetric, non-radioactive assay. The basis for the assay is the cleavage of cAMP by PDE1A. The 5′AMP is further cleaved into the nucleoside and phosphate by the enzyme 5′-nucleotidase (catnr KI-307). The phosphate released due to enzymatic cleavage is quantified using BIOMOL GREEN™ reagent (catnr AK-111) in a modified Malachite Green assay 1,2. A PDE1A inhibitor will result in a decrease of the signal.
For the enzymatic reaction a mix of 25 μL with purified PDE1A enzyme, 100 μM cAMP, 5′Nucleotidase and the compound is made in a clear 384-plate. The reaction buffer is Tris 20 mM pH 7.4, 4 μg/ml calmodulin, 3 mM MgCl2, 1.5 mM CaCl2, 0.2 mg/mL BSA and 0.001% Brij-35. After an incubation of 45 minutes at 37° C., the reaction is stopped by the addition of 50 μL BIOMOL GREEN™ reagent. After 30 minutes incubation at room temperature, the readout is performed on the Envision (absorption at 615 nm).
All compounds are tested in duplicate starting from 20 μM followed by a ⅓ serial dilution, 8 points (20 μM-6.67 μM-2.22 μM-740 nM-247 nM-82 nM-27 nM-9 nM) in a final concentration of 1% DMSO. As the positive dose response control compound Vardenafil is used. For the calculation of z′ and PIN values 10 μM Vardenafil is used as positive control (100% inhibition) and 1% DMSO as negative control (0% inhibition).
The following compounds have been or can be prepared according to the synthetic methods described above. For the purpose of Table 2 below, activity of each compound, which can be determined using the PDE1A assay method described in above, is expressed as follows: […]

IC50 | SMILES
< 100 nM | CN(Cc1ccc(F)cc1)c1nc2c(C3CCCC3)nn(C)c2c(=O)[nH]1 [Example 70, 3-cyclopentyl-5-((4-fluorobenzyl)(methyl)amino)-1-methyl-1H-pyrazolo[4,3-d]pyrimidin-7(6H)-one]
< 100 nM | CN(Cc1ccc(Cl)cc1)c1nc2c(C3CCCC3)nn(C)c2c(=O)[nH]1 [Example 71, 5-((4-chlorobenzyl)(methyl)amino)-3-cyclopentyl-1-methyl-1H-pyrazolo[4,3-d]pyrimidin-7(6H)-one]
< 100 nM | CCCc1nn(C)c2c(=O)[nH]c(NCc3sc(-c4ccccc4)nc3C)nc12 [Example 72, 1-methyl-5-((4-methyl-2-phenylthiazol-5-yl)methylamino)-3-propyl-1H-pyrazolo[4,3-d]pyrimidin-7(6H)-one]
101 to 500 nM | CCCc1nn(C)c2c(=O)[nH]c(NCc3cccc(-n4cncn4)c3)nc12 [Example 73]
< 100 nM | CCCc1nn(C)c2c(=O)[nH]c(N(Cc3cccc(N4CCOCC4)c3)CC(C)C)nc12 [Example 74, 5-(isobutyl(3-morpholinobenzyl)amino)-1-methyl-3-propyl-1H-pyrazolo[4,3-d]pyrimidin-7(6H)-one]
101 to 500 nM | CCCc1nn(C)c2c(=O)[nH]c(N(CCC)CCc3ccc(Cl)cc3)nc12 [Example 75, 5-((4-chlorophenethyl)(propyl)amino)-1-methyl-3-propyl-1H-pyrazolo[4,3-d]pyrimidin-7(6H)-one]
101 to 500 nM | Cn1nc(C2CCCC2)c2nc(NCc3ccc(Cl)c(Cl)c3)[nH]c(=O)c21 [Example 76, 3-cyclopentyl-5-(3,4-dichlorobenzylamino)-1-methyl-1H-pyrazolo[4,3-d]pyrimidin-7(6H)-one]
< 100 nM | CN(Cc1ccc(Cl)c(Cl)c1)c1nc2c(C3CCCC3)nn(C)c2c(=O)[nH]1 [Example 77, 3-cyclopentyl-5-((3,4-dichlorobenzyl)(methyl)amino)-1-methyl-1H-pyrazolo[4,3-d]pyrimidin-7(6H)-one]
< 100 nM | CCCN(CCC)c1nc2c(C3CCCC3)nn(C)c2c(=O)[nH]1 [Example 78, 3-cyclopentyl-5-(dipropylamino)-1-methyl-1H-pyrazolo[4,3-d]pyrimidin-7(6H)-one]
101 to 500 nM | CCCc1nn(C)c2c(=O)[nH]c(NCCc3ccc(Cl)cc3)nc12 [Example 79, 5-(4-chlorophenethylamino)-1-methyl-3-propyl-1H-pyrazolo[4,3-d]pyrimidin-7(6H)-one]
< 100 nM | Cc1nc(-c2ccccc2)sc1CN(C)c1nc2c(C(C)(C)C)nn(C)c2c(=O)[nH]1 [Example 80, 3-tert-butyl-1-methyl-5-(methyl((4-methyl-2-phenylthiazol-5-yl)methyl)amino)-1H-pyrazolo[4,3-d]pyrimidin-7(6H)-one]
< 100 nM | CN(Cc1cc(-c2ccccc2)nn1C)c1nc2c(C(C)(C)C)nn(C)c2c(=O)[nH]1 [Example 81, 3-tert-butyl-1-methyl-5-(methyl((1-methyl-3-phenyl-1H-pyrazol-5-yl)methyl)amino)-1H-pyrazolo[4,3-d]pyrimidin-7(6H)-one]
> 500 nM | CCCc1nn(C)c2c(=O)[nH]c(NCCc3ccc(OCC)c(OCC)c3)nc12 [Example 82, 5-(3,4-diethoxyphenethylamino)-1-methyl-3-propyl-1H-pyrazolo[4,3-d]pyrimidin-7(6H)-one]
101 to 500 nM | CCCc1nn(C)c2c(=O)[nH]c(NCc3nnc4ccccn34)nc12 [Example 83, 5-([1,2,4]triazolo[4,3-a]pyridin-3-ylmethylamino)-1-methyl-3-propyl-1H-pyrazolo[4,3-d]pyrimidin-7(6H)-one]
> 500 nM | CC1CCCCN1c1nc2c(C3CCCC3)nn(C)c2c(=O)[nH]1 (centres unmarked) [Example 84, 3-cyclopentyl-1-methyl-5-(2-methylpiperidin-1-yl)-1H-pyrazolo[4,3-d]pyrimidin-7(6H)-one]
> 500 nM | Cn1nc(C2CCCC2)c2nc(N3CCCCC3)[nH]c(=O)c21 [Example 85, 3-cyclopentyl-1-methyl-5-(piperidin-1-yl)-1H-pyrazolo[4,3-d]pyrimidin-7(6H)-one]
< 100 nM | Cn1nc(C2CCCC2)c2nc(N3CCCC3c3ccccc3)[nH]c(=O)c21 (centres unmarked) [Example 86, 3-cyclopentyl-1-methyl-5-(2-phenylpyrrolidin-1-yl)-1H-pyrazolo[4,3-d]pyrimidin-7(6H)-one]
> 500 nM | CCCc1nn(C)c2c(=O)[nH]c(NCCc3ccc(F)cc3)nc12 [Example 87, 5-(4-fluorophenethylamino)-1-methyl-3-propyl-1H-pyrazolo[4,3-d]pyrimidin-7(6H)-one]
> 500 nM | CCCc1nn(C)c2c(=O)[nH]c(NCCc3cnn(-c4ccccc4)c3)nc12 [Example 88, 1-methyl-5-(2-(1-phenyl-1H-pyrazol-4-yl)ethylamino)-3-propyl-1H-pyrazolo[4,3-d]pyrimidin-7(6H)-one]

IC50 | SMILES
< 100 nM | CCCN(CCC)c1nc2c(C(C)(C)C)nn(C)c2c(=O)[nH]1 [Example 89, 3-tert-butyl-5-(dipropylamino)-1-methyl-1H-pyrazolo[4,3-d]pyrimidin-7(6H)-one]
< 100 nM | Cc1nc(-c2cccc(CN(C)c3nc4c(C(C)(C)C)nn(C)c4c(=O)[nH]3)c2)cs1 [Example 90, 3-tert-butyl-1-methyl-5-(methyl(3-(2-methylthiazol-4-yl)benzyl)amino)-1H-pyrazolo[4,3-d]pyrimidin-7(6H)-one]
101 to 500 nM | CCCc1nn(C)c2c(=O)[nH]c(NCc3c(C)nn(Cc4ccccc4)c3C)nc12 [Example 91, 5-((1-benzyl-3,5-dimethyl-1H-pyrazol-4-yl)methylamino)-1-methyl-3-propyl-1H-pyrazolo[4,3-d]pyrimidin-7(6H)-one]
< 100 nM | CN1CCN(c2cccc(CNc3nc4c(C(C)(C)C)nn(C)c4c(=O)[nH]3)c2)CC1 [Example 92, 3-tert-butyl-1-methyl-5-(3-(4-methylpiperazin-1-yl)benzylamino)-1H-pyrazolo[4,3-d]pyrimidin-7(6H)-one]
< 100 nM | CC(C)CN(Cc1cccc(-n2cccn2)c1)c1nc2c(C(C)(C)C)nn(C)c2c(=O)[nH]1 [Example 93]
< 100 nM | CCCc1nn(C)c2c(=O)[nH]c(N(Cc3cccc(-n4cccn4)c3)CC(C)C)nc12 [Example 94]
< 100 nM | CC(C)CN(Cc1cccc(-n2cncn2)c1)c1nc2c(C(C)(C)C)nn(C)c2c(=O)[nH]1 [Example 95]
< 100 nM | CCCc1nn(C)c2c(=O)[nH]c(N(Cc3cccc(-n4cncn4)c3)CC(C)C)nc12 [Example 96]
< 100 nM | CC(C)CN(Cc1ccc(F)cc1)c1nc2c(C(C)(C)C)nn(C)c2c(=O)[nH]1 [Example 97, 3-tert-butyl-5-((4-fluorobenzyl)(isobutyl)amino)-1-methyl-1H-pyrazolo[4,3-d]pyrimidin-7(6H)-one]
< 100 nM | CCCc1nn(C)c2c(=O)[nH]c(N(Cc3ccc(F)cc3)CC(C)C)nc12 [Example 98, 5-((4-fluorobenzyl)(isobutyl)amino)-1-methyl-3-propyl-1H-pyrazolo[4,3-d]pyrimidin-7(6H)-one]
< 100 nM | CC(C)CN(C)c1nc2c(C(C)(C)C)nn(C)c2c(=O)[nH]1 [Example 99, 3-tert-butyl-5-(isobutyl(methyl)amino)-1-methyl-1H-pyrazolo[4,3-d]pyrimidin-7(6H)-one]
< 100 nM | CC(C)CN(Cc1cccc(-n2cccc2)c1)c1nc2c(C(C)(C)C)nn(C)c2c(=O)[nH]1 [Example 100]
< 100 nM | CCCc1nn(C)c2c(=O)[nH]c(N(Cc3cccc(-n4cccc4)c3)CC(C)C)nc12 [Example 101]
< 100 nM | CCCc1nn(C)c2c(=O)[nH]c(N(Cc3cccc(N4CCN(C)CC4)c3)CC(C)C)nc12 [Example 102, 5-(isobutyl(3-(4-methylpiperazin-1-yl)benzyl)amino)-1-methyl-3-propyl-1H-pyrazolo[4,3-d]pyrimidin-7(6H)-one]
< 100 nM | Cn1nc(C(C)(C)C)c2nc(N(CCC(C)(C)C)Cc3cccc(N4CCOCC4)c3)[nH]c(=O)c21 [Example 103, 3-tert-butyl-5-((3,3-dimethylbutyl)(3-morpholinobenzyl)amino)-1-methyl-1H-pyrazolo[4,3-d]pyrimidin-7(6H)-one]
< 100 nM | CCCC(C)CN(Cc1cccc(N2CCOCC2)c1)c1nc2c(C(C)(C)C)nn(C)c2c(=O)[nH]1 (centres unmarked) [Example 104, 3-tert-butyl-1-methyl-5-((2-methylpentyl)(3-morpholinobenzyl)amino)-1H-pyrazolo[4,3-d]pyrimidin-7(6H)-one]
< 100 nM | CCC(CC)CN(C)c1nc2c(C(C)(C)C)nn(C)c2c(=O)[nH]1 [Example 105, 3-tert-butyl-5-((2-ethylbutyl)(methyl)amino)-1-methyl-1H-pyrazolo[4,3-d]pyrimidin-7(6H)-one]
< 100 nM | CCCc1nn(C)c2c(=O)[nH]c(N(CCC(C)C)Cc3cccc(-n4cccn4)c3)nc12 [Example 106]
< 100 nM | CCCc1nn(C)c2c(=O)[nH]c(N(Cc3cccc(-n4cccn4)c3)CC(CC)CC)nc12 [Example 107]

Reference: US20080242661A1, “Novel compounds useful for the treatment of degenerative & inflammatory diseases” (priority 2006, published 2008)
